# Read-outs that look alike come from different tables or passages of the source.
# Key:
# Test in all cases: SRB proliferation assay, 72 h
# [1] = test system: SW480 CRC cell line; format: cell-based, human; conditions: for IC50: Homo sapiens, SW480
# Method: (§1) Cell proliferation was evaluated by SRB following exposure to OSI-906 for 72 hours. Cells were plated at an optimized density in 96-well plates, incubated overnight at 37° C., and then exposed to a serial dilution of OSI-906. After 72 hours incubation, cells were fixed with trichloroacetic acid and an SRB was performed as described in materials and methods.
# (§2) Cell Lines and Culture. […] human colon cancer cell lines, were obtained from American Type Culture Collection (Manassas, Va.). Cells were grown in RPMI medium supplemented with 10% fetal bovine serum, 1% non-essential amino acids, 1% penicillin/streptomycin and were maintained at 37° C. in an incubator under an atmosphere containing 5% CO2. The cells were routinely screened for the presence of mycoplasma (MycoAlert, Cambrex Bio Science, Baltimore, Md.) and were exposed to PQIP when they reached approximately 70% confluence.
# (§3) Multiple clones from the same transfection were pooled and grown under puromycin selection.
# (§4) The CRC cell lines were treated with a range of concentrations of PQIP (from 0.05-5 μM) for 72 hours.
# To characterize the potential functionality that the selected genes may play in the sensitivity or resistance to PQIP, resistant and sensitive CRC cell lines were stably transfected with specific shRNA, treated with increasing concentrations of PQIP and proliferation assays performed to observe, if when manipulated, these genes alter responsiveness (i.e. the S or R phenotype). […] Both of these transfected cell lines were assayed for proliferation as described above.
# (§5) Cell Lines and Culture: Twenty-seven human colon cancer cell lines, were obtained from American Type Culture Collection (Manassas, Va.). The GEO cells were a generous gift from Dr. Fortunato Ciardiello (Cattedra di Oncologia Medica, Dipartimento Medico-Chirurgico di Internistica Clinica e Sperimentale “F Magrassi e A Lanzara,” Seconda Università degli Studi di Napoli, Naples). All cells except GEO were grown in RPMI medium supplemented with 10% fetal bovine serum, 1% non-essential amino acids, 1% penicillin/streptomycin and were maintained at 37° C. in an incubator under an atmosphere containing 5% CO2. GEO cells were grown in DMEM/F12 supplemented with 10% fetal bovine serum, 1% non-essential amino acids, 1% penicillin/streptomycin. The cells were routinely screened for the presence of mycoplasma (MycoAlert, Cambrex Bio Science, Baltimore, Md.) and were exposed to OSI-906 when they reached approximately 70% confluence. OSI-906 was provided by OSI Pharmaceuticals, (Boulder, Colo.) and prepared as a 10 mM stock solution in DMSO.
# as §3
# [2] = test system: LS180 CRC cell line; format: cell-based; conditions: Homo sapiens
# Method: as §1, with “FIG. 17: Results of cell proliferation assay on the panel of 27 CRC cell lines. Cell proliferation” for “Cell proliferation”
# as §2, §4, §5
# (§6) Assessment of responsiveness of a panel of CRC cell lines to OSI-906. In order to assess CRC cell lines with differential sensitivity to OSI-906, a panel of 27 CRC cell lines were exposed to increasing concentrations of OSI-906 and proliferation was measured using the SRB assay as described previously (Pitts, T M, et al. Mol Cancer Ther 2009; 8(2):342-9). As depicted in FIG. 17 there was a wide range of sensitivity of the CRC cell lines to OSI-906, the majority of the cell lines failing to reach an IC50 up to 5 μmol/L, but a clear distinction could be made between the cell lines that were sensitive and the cell lines that were resistant.
# [3] = test system: SW948 CRC cell line; format: cell-based; conditions: Homo sapiens
# Method: as §1, with “FIG. 17: Results of cell proliferation assay on the panel of 27 CRC cell lines. Cell proliferation” for “Cell proliferation”
# as §2, §4, §5, §6
# [4] = test system: SW1116 CRC cell line; format: cell-based; conditions: Homo sapiens
# Method: as §1, with “FIG. 17: Results of cell proliferation assay on the panel of 27 CRC cell lines. Cell proliferation” for “Cell proliferation”
# as §2, §4, §5, §6
# [5] = test system: LS1034 CRC cell line; format: cell-based; conditions: Homo sapiens
# Method: as §1, with “FIG. 17: Results of cell proliferation assay on the panel of 27 CRC cell lines. Cell proliferation” for “Cell proliferation”
# as §2, §4, §5, §6
# [6] = test system: T84 CRC cell line; format: cell-based; conditions: Homo sapiens
# Method: as §1, with “FIG. 17: Results of cell proliferation assay on the panel of 27 CRC cell lines. Cell proliferation” for “Cell proliferation”
# as §2, §4, §5, §6
# [7] = test system: HCT15 CRC cell line; format: cell-based; conditions: Homo sapiens
# Method: as §1, with “FIG. 17: Results of cell proliferation assay on the panel of 27 CRC cell lines. Cell proliferation” for “Cell proliferation”
# as §2, §4, §5, §6
# [8] = test system: SW837 CRC cell line; format: cell-based; conditions: Homo sapiens
# Method: as §1, with “FIG. 17: Results of cell proliferation assay on the panel of 27 CRC cell lines. Cell proliferation” for “Cell proliferation”
# as §2, §4, §5, §6
# [9] = test system: LS174T CRC cell line; format: cell-based; conditions: Homo sapiens
# Method: as §1, with “FIG. 17: Results of cell proliferation assay on the panel of 27 CRC cell lines. Cell proliferation” for “Cell proliferation”
# as §2, §4, §5, §6
# [10] = test system: LS123 CRC cell line; format: cell-based; conditions: Homo sapiens
# Method: as §1, with “FIG. 17: Results of cell proliferation assay on the panel of 27 CRC cell lines. Cell proliferation” for “Cell proliferation”
# as §2, §4, §5, §6
# [11] = 72 hours, read-out: IC50, proliferation, OSI-906 (SRB)
# [12] = 72 hours, 0.05-5 μM, read-out: IC50, growth inhibition by PQIP (SRB)
smiles,measurement,setting,value
"C[C@]1(O)C[C@@H](c2nc(-c3ccc4ccc(-c5ccccc5)nc4c3)c3c(N)nccn32)C1 [OSI-906, cis-3-[8-amino-1-(2-phenyl-quinolin-7-yl)-imidazo[1,5-a]pyrazin-3-yl]-1-methyl-cyclobutanol]",IC50,[1]; read-out: S/I/R to OSI-906,> 5 µM
same,IC50,[1]; [11],> 5 µM
same,shift in sensitivity to OSI-906 after MT2A shRNA knockdown,[1]; SW480 stably transfected with MT2A shRNA,did not exhibit the same “left shift”
same,IC50,[2]; [11],> 5 µM
same,IC50,[2]; read-out: S/I/R to OSI-906,> 5 µM
same,IC50,[3]; [11],> 5 µM
same,IC50,[3]; read-out: S/I/R to OSI-906,> 5 µM
same,IC50,"[4]; SW 1116, 72 hours, read-out: IC50, proliferation, OSI-906 (SRB)",> 5 µM
same,IC50,"[4]; SW 1116, read-out: S/I/R to OSI-906",> 5 µM
same,IC50,"[5]; LS-1034, 72 hours, read-out: IC50, proliferation, OSI-906 (SRB)",≤ 1.5 µM
same,IC50,"[5]; LS-1034, read-out: S/I/R to OSI-906",≤ 1.5 µM
same,IC50,[6]; [11],> 5 µM
same,IC50,"[6]; T-84, read-out: S/I/R to OSI-906",> 5 µM
same,IC50,"[7]; HCT-15, 72 hours, read-out: IC50, proliferation, OSI-906 (SRB)",> 5 µM
same,IC50,"[7]; HCT-15, read-out: S/I/R to OSI-906",> 5 µM
same,IC50,[8]; [11],> 5 µM
same,IC50,[8]; read-out: S/I/R to OSI-906,> 5 µM
same,IC50,[9]; [11],> 5 µM
same,IC50,[9]; read-out: S/I/R to OSI-906,> 5 µM
same,IC50,"[10]; LS-123, 72 hours, read-out: IC50, proliferation, OSI-906 (SRB)",> 5 µM
same,IC50,"[10]; LS-123, read-out: S/I/R to OSI-906",> 5 µM
"CN1CCN([C@H]2C[C@@H](c3nc(-c4ccc5ccc(-c6ccccc6)nc5c4)c4c(N)nccn43)C2)CC1 [PQIP, cis-3-[3-(4-Methyl-piperazin-1-yl)-cyclobutyl]1-(2-phenyl-quinolin-7-yl)-imidazo[1,5-a]pyrazin-8-ylamine]",IC50,[1]; [12],> 5 µM
same,shift in sensitivity to PQIP after shRNA knockdown,[1]; SW480 transfected with MT2A shRNA vs parental or scramble shRNA control,very modest if any left shift in sensitivity
same,shift in sensitivity to PQIP after shRNA knockdown,[1]; SW480 transfected with caldesmon shRNA vs parental or scramble shRNA control,no left shift in sensitivity
same,IC50,[2]; [12],> 5 µM
same,IC50,[3]; [12],> 5 µM
same,IC50,"[4]; SW 1116, 72 hours, 0.05-5 μM, read-out: IC50, growth inhibition by PQIP (SRB)",> 5 µM
same,IC50,"[5]; LS-1034, 72 hours, 0.05-5 μM, read-out: IC50, growth inhibition by PQIP (SRB)",> 5 µM
same,IC50,[6]; [12],> 5 µM
same,IC50,"[7]; HCT-15, 72 hours, 0.05-5 μM, read-out: IC50, growth inhibition by PQIP (SRB)",> 5 µM
same,IC50,[8]; [12],> 5 µM
same,IC50,[9]; [12],> 5 µM
same,IC50,"[10]; LS-123, 72 hours, 0.05-5 μM, read-out: IC50, growth inhibition by PQIP (SRB)",> 5 µM
